According to patent US5939578A, “Vasomolol: an ultra short-acting and vasodilatory vanilloid type β - adrenoceptor antagonist” (Lin; Tong-Ho, priority 1996, dated 1999):

Key:
[1] = Blood pressure and heart rate responses to intravenous injection in anesthetized rats; assay type: in vivo, pentobarbital-anesthetized normotensive Wistar rats
Experimental: Measurement of blood pressure and heart rate
The method reported in Gen.
(§1) vasomolol (0.5, 1.0, 3.0 mg/kg)

[2] = tested on: blood and liver esterase; details: background, Drugs 33, 392, 1987; cited from earlier work
[3] = tested on: phenylephrine-induced pressor response; assay: Inhibition of phenylephrine-induced pressor response during intravenous infusion; assay type: in vivo, reserpinized rats; details: infusion 300 μg/kg/min; phenylephrine 10 μg/kg i.v.; data not shown
Experimental: The method reported in Gen. Pharmacol. 24, 1425, 1993 (by inventor group),
phenylephrine (10 μg/klg, i.v.)

[4] = target: T1, β-adrenoceptor, ventricular membranes (Sus scrofa, UniProt Q28998); assay: Competition for [3H]-DHA binding to ventricular membranes; design: species or system pig
T1 construct: tissue local slaughterhouse; host or cells: pig heart ventricular membranes
T1 sequence (Q28998 whole entry): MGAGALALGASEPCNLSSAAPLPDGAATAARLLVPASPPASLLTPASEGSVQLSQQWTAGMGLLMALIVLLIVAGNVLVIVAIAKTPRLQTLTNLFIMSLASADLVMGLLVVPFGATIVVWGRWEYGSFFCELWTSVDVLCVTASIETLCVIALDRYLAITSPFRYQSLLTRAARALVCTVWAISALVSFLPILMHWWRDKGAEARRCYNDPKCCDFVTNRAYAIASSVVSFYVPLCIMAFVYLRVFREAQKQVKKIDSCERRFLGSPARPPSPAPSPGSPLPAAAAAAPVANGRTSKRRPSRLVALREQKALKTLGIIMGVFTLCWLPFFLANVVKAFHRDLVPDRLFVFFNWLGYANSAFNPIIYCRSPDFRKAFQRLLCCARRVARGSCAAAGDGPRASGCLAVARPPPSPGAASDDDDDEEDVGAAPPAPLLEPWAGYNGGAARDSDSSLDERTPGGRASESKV
Experimental: Pig's heart were obtained from a local slaughterhouse immediately after the animals had been killed and transported to our laboratory in ice-cold buffer (250 mM sucrose/50 mM Tris [hydroxymethyl] aminomethane HCl/1 mM magnesium chloride, pH 7.4). Various heart tissues were removed and prepared as detailed as described in Cardiovasc. […] In the test for receptor binding, the ventricles were placed in ice-cold buffer and all subsequent procedures were carried out at 4° C. The tissue was homogenised in 20 volumes of TE buffer (10 mmole.litre^-1 Tris-HCl, 1 mmole.litre^-1 EDTA, 0.1 mmole.litre^-1 ascorbic acid, pH 7.4) with three 12-s pulses using a Polytron homogenizer (Kinematica, Model PT 3000, Switzerland). The homogenate was filtered with pressure through muslin and the filtrate centrifuged for 10 min at 1000 g to remove connective tissue, unbroken cells and cell debris.
This membrane preparation has been described in Biochem. Biophys. Acta. […] The binding assay of [^3 H]-DHA was carried out as described in Biochem. Biophys. Res. Commun. […] [^3 ]-DHA and ventricular membranes (200-300 μg) were incubated for 60 min at 25° C. with and without the addition of 1 μM alprenolol, in 75 mM Tris-HCI buffer comprising MgCl2 25 mM, to make a final volume of 250 μl. In competitive binding experiments, the competing agent was added directly to the incubation mixture. The incubation was terminated by addition of 1 ml of ice-cold assay buffer followed by immediate filtration through Whatman GF/C glass fiber filters supported on a 12-port filter manifold (Millipore). The filters were immediately washed three times with 5 ml of ice-cold assay buffer and dried in an oven at 60° C. for 2 hr prior to adding 5 ml of Triton-toluene based scintillation fluid.
(§2) In each experiment, non-specifically bound [^3 H]-DHA was determined by incubating membrane protein and [^3 H]-DHA with 1 μM alprenolol. Specific binding was thus obtained by deducing this value from the total binding of [^3 H]-DHA for each sample.
All incubations were performed as described in the method section. Data shown are the means of three independent duplicate determinations.

[5] = tested on: β-adrenergic receptor; assay: β-blockade and duration of action: inhibition of (-)isoproterenol-induced tachycardia during and after infusion; assay type: in vivo, pentobarbital-anesthetized rats
Experimental: Vasomolol (100 μg/kg/min) was infused consecutively into a femoral vein in pentobarbital-anesthetized rats. Each perfusion was maintained for 60 min. Before and during the infusion of vasomolol and esmolol, at 10-min intervals, bolus i.v. injections of (-) isoproterenol (0.5. μg/kg) were administered to assess the level of β-blockade. (-) lsoproterenol injections were also continued for 60 min. after termination of the highest dose of vasomolol and esmolol to assess the duration of β-blockade reported in J. Pharm. Exp. Ther. 237, 912, 1986 (by Quon, C. Y. et al.). The percentage of inhibition of the (-)isoproterenol-induced tachycardia parameter of β-blockade--was calculated during and after infusions of vasomolol.
isoproterenol (0.5 μg/kg)
as §1

[6] = tested on: right atria and left atrial strips; assay: Intrinsic sympathomimetic activity in isolated right atria and left atrial strips; design: species or system reserpinized guinea-pigs; details: in words
Experimental: Animals were pretreated with reserpine (10 mg/kg, i.p.) 24 hr prior to the experiment described in Naunyn-Schmiedeberg's Arch. […] All preparations including isolated right atria and left atria strips were studied.
All measurements are expressed as mean percentages of the control frequency or force in the same preparation.

[7] = Blood pressure and heart rate responses to intravenous injection in anesthetized rats; assay type: in vivo, pentobarbital-anesthetized normotensive Wistar rats; details: 0.1 mg/kg i.v.; mean ± SEM (n = 8)
[8] = tested on: β-adrenoceptor, ventricular membranes; assay: [3H]-DHA saturation binding to ventricular membranes (Scatchard analysis); design: species or system pig
Experimental: Pig's heart were obtained from a local slaughterhouse immediately after the animals had been killed and transported to our laboratory in ice-cold buffer (250 mM sucrose/50 mM Tris [hydroxymethyl] aminomethane HCl/1 mM magnesium chloride, pH 7.4). Various heart tissues were removed and prepared as detailed as described in Cardiovasc. Res. 25, 764, 1991 (by Bjornerheim, R. et al.). In the test for receptor binding, the ventricles were placed in ice-cold buffer and all subsequent procedures were carried out at 4° C. The tissue was homogenised in 20 volumes of TE buffer (10 mmole.litre^-1 Tris-HCl, 1 mmole.litre^-1 EDTA, 0.1 mmole.litre^-1 ascorbic acid, pH 7.4) with three 12-s pulses using a Polytron homogenizer (Kinematica, Model PT 3000, Switzerland). The homogenate was filtered with pressure through muslin and the filtrate centrifuged for 10 min at 1000 g to remove connective tissue, unbroken cells and cell debris. The supernatant was centrifuged again at 10,000 g for 12 min. This second supernatant was then centrifuged for 15 min at 30,000 g and the final pellet was suspended in a assay buffer (75 mM Tris HCl/25 mM MgCl2, pH 7.4).
Protein was determined by the method in Anal. Biochem. 72, 248, 1976 (by Bradford, M. M. et al.). This membrane preparation has been described in Biochem. Biophys. Acta. 541, 334, 1978 (by Ciaraldi, T. et al.). The binding assay of [^3 H]-DHA was carried out as described in Biochem. Biophys. Res. Commun. 60, 703, 1974 ( by Lefkowitz, R. J. et al.) with slight modifications. [^3 ]-DHA and ventricular membranes (200-300 μg) were incubated for 60 min at 25° C. with and without the addition of 1 μM alprenolol, in 75 mM Tris-HCI buffer comprising MgCl2 25 mM, to make a final volume of 250 μl. In competitive binding experiments, the competing agent was added directly to the incubation mixture. The incubation was terminated by addition of 1 ml of ice-cold assay buffer followed by immediate filtration through Whatman GF/C glass fiber filters supported on a 12-port filter manifold (Millipore). The filters were immediately washed three times with 5 ml of ice-cold assay buffer and dried in an oven at 60° C. for 2 hr prior to adding 5 ml of Triton-toluene based scintillation fluid.
as §2, with “[^3 H]-DHA trapped in the filters was counted in a Wallac LKB 1211 rackbeta liquid scintillation counter with an efficiency of 41%. In” for “In”
[^3 H]dihydroalprenolol([^3 H]DHA) binding curve with pig ventricular membranes. […]

[9] = 0.5 mg/kg i.v., mean ± SEM (n = 8)
[10] = 1.0 mg/kg i.v., mean ± SEM (n = 8)
[11] = 3.0 mg/kg i.v., mean ± SEM (n = 8)

Structure (SMILES): COC(=O)CCc1ccc(OCC(O)CNC(C)C)cc1 (centres unmarked) [Esmolol]
- BP change [1, 9]: -4.0 ± 0.8 mm Hg
- HR change [1, 9]: -25.7 ± 2.4 bpm
- bradycardia duration [1, 9]: 3.7 ± 0.6 min
- BP change [1, 10]: -6.3 ± 1.3 mm Hg
- HR change [1, 10]: -37.5 ± 3.6 bpm
- bradycardia duration [1, 10]: 6.0 ± 1.3 min
- BP change [1, 11]: -8.7 ± 0.9 mm Hg
- HR change [1, 11]: -58.2 ± 4.7 bpm
- bradycardia duration [1, 11]: 7.5 ± 1.1 min
- bradycardia duration ([1]; i.v. injection): less than 10 min
- metabolism by blood and liver esterase [2]: rapidly metabolized by blood and liver esterase
- inhibition of phenylephrine-induced pressor response [3]: could not significantly inhibit
- order of potency inhibiting [3H]-DHA binding ([4]; in words): (-) propranolol>>vasomolol=esmolol
- IC50 ([4]; mean±S.E.M.): 5000 ± 1300 nM
- onset of β-blockade to steady-state level ([5]; after initiating each infusion rate, isoproterenol 0.5 μg/kg): ≤ 10 min
- time required for 50% recovery ([5]; after termination of infusion, mean±S.E.M.): 9.5 ± 1.0 min
- disappearance of β-blockade after termination of infusion ([5]; in words): disappeared rapidly after the termination of infusion

Structure (SMILES): CC(C)NCC(O)COc1cccc2ccccc12 (centres unmarked) [Propranolol]
- BP change ([1]; 0.1 mg/kg i.v., mean ± SEM (n = 8)): 3.9 ± 1.0 mm Hg
- BP change [1, 9]: 7.0 ± 1.6 mm Hg
- HR change [1, 9]: -50.6 ± 8.1 bpm
- BP change [1, 10]: 9.5 ± 1.1 mm Hg
- HR change [1, 10]: -65.0 ± 8.9 bpm
- negative inotropic and chronotropic effects [6]: produced negative inotropic and chronotropic effects
- HR change [7]: -30.7 ± 3.8 bpm

Structure (SMILES): CCCc1ccccc1OCC(O)CNC(C)C (centres unmarked) [[^3 H]-DHA, [^3 H]dihydroalprenolol]
- maximum binding capacity (Bmax) ([8]; 25° C., mean±S.E.M., Scatchard): 120.3±6.0 fmol/mg protein
- Kd ([8]; 25° C., mean±S.E.M., Scatchard, read-out: equilibrium dissociation constant (Kd)): 8.1 ± 0.9 nM
- duration of maintained binding equilibrium ([8]; data not shown): up to 90 min
- time to reach binding equilibrium ([8]; data not shown): approximately 20 min

Structure (SMILES): CC(C)NCC(O)c1ccc(O)c(O)c1 (centres unmarked) [isoproterenol, reference compound]
- intrinsic sympathomimetic activity: effect on heart rate and contractility ([6]; cumulative concentrations): produced concentration-dependent increases in heart rate and contractility
